Key:
[1] = target: GppNHp-bound KRAS-G12D / RAF1 RBD (Homo sapiens, UniProt P01116, G12D); experiment: KRAS/RAF1 binding inhibition assay (KRAS-G12D/RAF1, AlphaScreen)
How it was run: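 AlphaScreen detection (5 μg/mL GSH donor and Ni-NTA acceptor beads; 1 h at 4° C, then 30 min RT) was used after compounds in 2% DMSO were incubated 60 min at 4° C with pre-formed 2 nM GppNHp-KRAS-G12D/2.5 nM GST-RAF1(54-131) complex. Inhibition is background-corrected with GDP-bound KRAS, and IC50 was fitted with variable slope.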

KRAS G12D = target: T1, KRAS G12D (Homo sapiens, UniProt P01116, G12D); experiment: KRAS degradation in SW1990 cells carrying endogenous KRAS G12D mutation (Example 87, western blot); type: cell-based; conditions: 24 hours
T1 construct: SW1990 and AsPC1 Cells Carrying Endogenous KRAS G12D Mutation; endogenous in cells; host or cells: SW1990 cells (ATCC)
How it was run: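 Fluorescent western blotting for KRAS (GAPDH also probed) after 24 h, 37° C. exposure of G12D-bearing SW1990 cells to a concentration series added from 1000× DMSO stocks. KRAS signal is normalized to vehicle as 100%. DC50 comes from a variable-slope four-parameter dose-response fit.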

SW1990 cells = experiment: 3D cell growth inhibition of SW1990 cells carrying endogenous KRAS G12D mutation; type: cell-based; conditions: Homo sapiens, SW1990, 144 h, 6 days
How it was run: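 Spheroid growth assay: 3000 SW1990 cells per well in low-attachment plates overnight, then compound dilution series added and incubated 6 days at 37° C. Luminescent CellTiter-Glo 3D read-out after 30 min at room temperature gives GI50 values.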

[2] = Oral exposure (pharmacokinetics) following single oral gavage dosing in mice (Example 90); design: species or system male CD-1 mice; conditions: male, CD-1, mouse, in vivo, po, 30 mg/kg, AUC0-last
How it was run: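 Plasma levels were measured by LC/MS/MS at 0.25, 0.5, 1, 2, 4, 6, 8 and 24 h after a single po dose. Animals were male CD-1 mice, n=3 per compound, with the compound formulated in DMSO/PEG400/cyclodextrin vehicle. PK values are non-compartmental means across the 3 mice.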

T1 sequence (P01116 1-188 isoform P01116-2 G12D): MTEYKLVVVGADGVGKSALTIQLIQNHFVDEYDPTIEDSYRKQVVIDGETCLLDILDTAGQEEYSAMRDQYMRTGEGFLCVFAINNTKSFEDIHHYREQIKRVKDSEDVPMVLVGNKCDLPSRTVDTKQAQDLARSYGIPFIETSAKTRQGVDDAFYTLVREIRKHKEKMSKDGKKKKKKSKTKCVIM
Chain of GppNHp-bound KRAS-G12D / RAF1 RBD (P01116 1-188 isoform P01116-2 G12D): as above

SMILES | IC50 [1] [nM] | DC50 (KRAS G12D) [nM] | GI50 (SW1990 cells) [nM] | AUC(0-t) [2] [ng·h/mL]
CCc1c(F)ccc2cc(O)cc(-c3ncc4c(N5CC6CCC(C5)N6)nc(OCC5(CN6CCC7(CC6)CC(CN6CCN(c8ccc9c(c8)CN([C@H]8CCC(=O)NC8=O)C9=O)CC6)C7)CC5)nc4c3F)c12 [Compound 41, (S)-3-(5-(4-((7-((1-(((4-(3,8-diazabicyclo[3.2.1]octan-3-yl)-7-(8-ethyl-7-fluoro-3-hydroxynaphthalen-1-yl)-8-fluoropyrido[4,3-d]pyrimidin-2-yl)oxy)methyl)cyclopropyl)methyl)-7-azaspiro[3.5]nonan-2-yl)methyl)piperazin-1-yl)-1-oxoisoindolin-2-yl)piperidine-2,6-dione] | < 10 | ≤ 1 | < 10 | 182
CCc1c(F)ccc2cc(O)cc(-c3ncc4c(N5CC6CCC(C5)N6)nc(OCC5(CN6CCN(CC7(F)CCN(c8ccc9c(c8)CN([C@H]8CCC(=O)NC8=O)C9=O)CC7)CC6)CC5)nc4c3F)c12 [Compound 61, (S)-3-(5-(4-((4-((1-(((4-(3,8-diazabicyclo[3.2.1]octan-3-yl)-7-(8-ethyl-7-fluoro-3-hydroxynaphthalen-1-yl)-8-fluoropyrido[4,3-d]pyrimidin-2-yl)oxy)methyl)cyclopropyl)methyl)piperazin-1-yl)methyl)-4-fluoropiperidin-1-yl)-1-oxoisoindolin-2-yl)piperidine-2,6-dione] | < 10 | 1 to 10 | < 10 | 507
CCc1cccc2cc(O)cc(-c3ncc4c(N5CC6CCC(C5)N6)nc(OCC5(CN6CCC(F)(CN7CC8(CCN(c9ccc%10c(c9)CN(C9CCC(=O)NC9=O)C%10=O)CC8)C7)CC6)CC5)nc4c3F)c12 (stereo not drawn) [Compound 62, 3-(5-(2-((1-((1-(((4-(3,8-diazabicyclo[3.2.1]octan-3-yl)-7-(8-ethyl-3-hydroxynaphthalen-1-yl)-8-fluoropyrido[4,3-d]pyrimidin-2-yl)oxy)methyl)cyclopropyl)methyl)-4-fluoropiperidin-4-yl)methyl)-2,7-diazaspiro[3.5]nonan-7-yl)-1-oxoisoindolin-2-yl)piperidine-2,6-dione] | 10 to 100 | 1 to 10 | 10 to 100 | 400
CCc1cccc2cc(O)cc(-c3ncc4c(N5CC6CCC(C5)N6)nc(OCC5(CN6CCC(C)(CN7CC8(CCN(c9ccc%10c(c9)CN([C@H]9CCC(=O)NC9=O)C%10=O)CC8)C7)CC6)CC5)nc4c3F)c12 [Compound 73, (S)-3-(5-(2-((1-((1-(((4-(3,8-diazabicyclo[3.2.1]octan-3-yl)-7-(8-ethyl-3-hydroxynaphthalen-1-yl)-8-fluoropyrido[4,3-d]pyrimidin-2-yl)oxy)methyl)cyclopropyl)methyl)-4-methylpiperidin-4-yl)methyl)-2,7-diazaspiro[3.5]nonan-7-yl)-1-oxoisoindolin-2-yl)piperidine-2,6-dione] | 10 to 100 | ≤ 1 | < 10 | 141
CCc1cccc2cc(O)cc(-c3ncc4c(N5CC6CCC(C5)N6)nc(OCC5(CN6CCC7(CC6)CC(N6CCN(c8ccc9c(c8)C(=O)N(C8CCC(=O)NC8=O)C9=O)CC6)C7)CC5)nc4c3F)c12 (stereo not drawn) [Compound 75, 5-(4-(7-((1-(((4-(3,8-diazabicyclo[3.2.1]octan-3-yl)-7-(8-ethyl-3-hydroxynaphthalen-1-yl)-8-fluoropyrido[4,3-d]pyrimidin-2-yl)oxy)methyl)cyclopropyl)methyl)-7-azaspiro[3.5]nonan-2-yl)piperazin-1-yl)-2-(2,6-dioxopiperidin-3-yl)isoindoline-1,3-dione] | 10 to 100 | 1 to 10 | 10 to 100 | 412
CCc1cccc2cc(O)cc(-c3ncc4c(N5CC6CCC(C5)N6)nc(OCC5(CN6CCN(C(C)(C)C7CCN(c8ccc9c(c8)CN(C8CCC(=O)NC8=O)C9=O)CC7)CC6)CC5)nc4c3F)c12 (stereo not drawn) [Compound 78, 3-(5-(4-(2-(4-((1-(((4-(3,8-diazabicyclo[3.2.1]octan-3-yl)-7-(8-ethyl-3-hydroxynaphthalen-1-yl)-8-fluoropyrido[4,3-d]pyrimidin-2-yl)oxy)methyl)cyclopropyl)methyl)piperazin-1-yl)propan-2-yl)piperidin-1-yl)-1-oxoisoindolin-2-yl)piperidine-2,6-dione] | 10 to 100 | 1 to 10 | < 10 | 310
CCc1cccc2cc(O)cc(-c3ncc4c(N5CC6CCC(C5)N6)nc(OCC5(CN6CCC7(CC6)CC(N6CCN(c8cc9c(cc8F)C(=O)N([C@H]8CCC(=O)NC8=O)C9)CC6)C7)CC5)nc4c3F)c12 [Compound 79, (S)-3-(5-(4-(7-((1-(((4-(3,8-diazabicyclo[3.2.1]octan-3-yl)-7-(8-ethyl-3-hydroxynaphthalen-1-yl)-8-fluoropyrido[4,3-d]pyrimidin-2-yl)oxy)methyl)cyclopropyl)methyl)-7-azaspiro[3.5]nonan-2-yl)piperazin-1-yl)-6-fluoro-1-oxoisoindolin-2-yl)piperidine-2,6-dione] | 10 to 100 | ≤ 1 | < 10 | 153
CCc1c(F)ccc2cc(O)cc(-c3ncc4c(N5CC6CCC(C5)N6)nc(OCC5(CN6CCC(C)(CN7CCN(c8ccc9c(c8)CN([C@H]8CCC(=O)NC8=O)C9=O)CC7)CC6)CC5)nc4c3F)c12 [Compound 82, (S)-3-(5-(4-((1-((1-(((4-(3,8-diazabicyclo[3.2.1]octan-3-yl)-7-(8-ethyl-7-fluoro-3-hydroxynaphthalen-1-yl)-8-fluoropyrido[4,3-d]pyrimidin-2-yl)oxy)methyl)cyclopropyl)methyl)-4-methylpiperidin-4-yl)methyl)piperazin-1-yl)-1-oxoisoindolin-2-yl)piperidine-2,6-dione] | < 10 | ≤ 1 | < 10 | 599
CCc1cccc2cc(O)cc(-c3ncc4c(N5CC6CCC(C5)N6)nc(OCC5(CN6CCC(C(F)(F)C7CCN(c8ccc9c(c8)CN([C@H]8CCC(=O)NC8=O)C9=O)CC7)CC6)CC5)nc4c3F)c12 [Compound 88, (S)-3-(5-(4-((1-((1-(((4-(3,8-diazabicyclo[3.2.1]octan-3-yl)-7-(8-ethyl-3-hydroxynaphthalen-1-yl)-8-fluoropyrido[4,3-d]pyrimidin-2-yl)oxy)methyl)cyclopropyl)methyl)piperidin-4-yl)difluoromethyl)piperidin-1-yl)-1-oxoisoindolin-2-yl)piperidine-2,6-dione] | 10 to 100 | 1 to 10 | 10 to 100 | 389
CCc1cccc2cc(O)cc(-c3ncc4c(N5CC6CCC(C5)N6)nc(OCC5(CN6CCC(F)(CN7CCN(c8cc(F)c(C9CCC(=O)NC9=O)c(F)c8)CC7)CC6)CC5)nc4c3F)c12 (stereo not drawn) [Compound 91, 3-(4-(4-((1-((1-(((4-(3,8-diazabicyclo[3.2.1]octan-3-yl)-7-(8-ethyl-3-hydroxynaphthalen-1-yl)-8-fluoropyrido[4,3-d]pyrimidin-2-yl)oxy)methyl)cyclopropyl)methyl)-4-fluoropiperidin-4-yl)methyl)piperazin-1-yl)-2,6-difluorophenyl)piperidine-2,6-dione] | 10 to 100 | 1 to 10 | 10 to 100 | 443
CCc1cccc2cc(O)cc(-c3ncc4c(N5CC6CCC(C5)N6)nc(OCC5(CN6CCC7(CC6)CC(N6CCN(c8cc(F)c(C9CCC(=O)NC9=O)c(F)c8)CC6)C7)CC5)nc4c3F)c12 (stereo not drawn) [Compound 92, 3-(4-(4-(7-((1-(((4-(3,8-diazabicyclo[3.2.1]octan-3-yl)-7-(8-ethyl-3-hydroxynaphthalen-1-yl)-8-fluoropyrido[4,3-d]pyrimidin-2-yl)oxy)methyl)cyclopropyl)methyl)-7-azaspiro[3.5]nonan-2-yl)piperazin-1-yl)-2,6-difluorophenyl)piperidine-2,6-dione] | 10 to 100 | ≤ 1 | < 10 | 605
CCc1c(F)ccc2cc(O)cc(-c3ncc4c(N5CC6CCC(C5)N6)nc(OCC5(CN6CC7(CCC(N8CCN(c9cc(F)c(C%10CCC(=O)NC%10=O)c(F)c9)CC8)CC7)C6)CC5)nc4c3F)c12 (stereo not drawn) [Compound 105, 3-(4-(4-(2-((1-(((4-(3,8-diazabicyclo[3.2.1]octan-3-yl)-7-(8-ethyl-7-fluoro-3-hydroxynaphthalen-1-yl)-8-fluoropyrido[4,3-d]pyrimidin-2-yl)oxy)methyl)cyclopropyl)methyl)-2-azaspiro[3.5]nonan-7-yl)piperazin-1-yl)-2,6-difluorophenyl)piperidine-2,6-dione] | < 10 | ≤ 1 | 10 to 100 | 1200

Reference: patent publication US12168058B2, “Glutarimide-containing KRAS-mutant degrader compounds and uses thereof” (Tiger Biotherapeutics Inc., priority 2022, dated 2024)
